Laboratory results from ChEMBL document CHEMBL3046330, “Synthesis and biological activity of hydrazidehydrazones and their corresponding 3-acetyl-2,5-disubstituted-2,3-dihydro-1,3,4-oxadiazoles” (Med Chem Res, 2012).
Converted amounts (≈) assume the structure as drawn. The source made the active and inactive calls. No cut-off for these calls is given here.

Experiments:
Transcription factor Sp1 = Transcription factor Sp1 (Homo sapiens, UniProt P08047); experiment: Inhibition of Sp1 (unknown origin) up to 25 ug/ml by luciferase reporter gene assay
SK-MEL = experiment: Cytotoxicity against Homo sapiens (human) SK-MEL cells assessed as cell viability up to 25 ug/ml after 48 hr by neutral red assay; format: functional, cell-based
Candida albicans [1] = experiment: Antifungal activity against Candida albicans NRRL Y-12983 after 24 hr by NCCLS broth microdilution method; format: functional; conditions: NRRL Y-12983, 24 h
RAW264.7 = experiment: Cytotoxicity against Mus musculus (mouse) RAW264.7 cells up to 25 ug/ml; format: cell-based
KB = experiment: Cytotoxicity against Homo sapiens (human) KB cells assessed as cell viability up to 25 ug/ml after 48 hr by neutral red assay; format: functional, cell-based
Vero = experiment: Cytotoxicity against Chlorocebus aethiops (African green monkey) Vero cells assessed as cell viability up to 25 ug/ml after 48 hr by neutral red assay; format: cell-based; conditions: chlorocebus sabaeus
Candida albicans [2] = experiment: Antifungal activity against Candida albicans ATCC 90028 after 24 hr by NCCLS broth microdilution method; format: functional; conditions: ATCC 90028, 24 h
BT-549 = experiment: Cytotoxicity against Homo sapiens (human) BT549 cells assessed as cell viability up to 25 ug/ml after 48 hr by neutral red assay; format: functional, cell-based
Cyberlindnera jadinii = experiment: Antifungal activity against Cyberlindnera jadinii NRRL Y-900 after 24 hr by NCCLS broth microdilution method; format: functional; conditions: Williopsis jadinii, NRRL Y-900, 24 h
HL-60 [3] = experiment: Cytotoxicity against Homo sapiens (human) HL60 cells; format: cell-based
Candida parapsilosis = experiment: Antifungal activity against Candida parapsilosis NRRL Y-12696 after 24 hr by NCCLS broth microdilution method; format: functional; conditions: Lodderomyces parapsilosis, NRRL Y-12696, 24 h
Candida tropicalis [4] = experiment: Antifungal activity against Candida tropicalis NRRL Y-12968 after 24 hr by NCCLS broth microdilution method; format: functional; conditions: NRRL Y-12968, 24 h
Candida tropicalis [5] = experiment: Antifungal activity against Candida tropicalis NRRL Y-12968 at 2000 ug/ml by agar diffusion method; format: functional; conditions: read-out: IZ
HL-60 [6] = experiment: Antioxidant activity in PMA-stimulated Homo sapiens (human) HL60 cells assessed as inhibition of intracellular ROS generation incubated for 30 min prior to PMA stimulation measured after 30 min by DCFH-DA assay; format: functional, cell-based
Nakaseomyces glabratus = experiment: Antifungal activity against Candida glabrata clinical isolate after 24 hr by NCCLS broth microdilution method; format: functional
[7] = target: T1, Nitric oxide synthase, inducible (Mus musculus) (UniProt P29477); experiment: Inhibition of iNOS in Mus musculus (mouse) RAW264.7 cells assessed as inhibition of LPS-induced nitrite production up to 25 ug/ml incubated for 30 min prior to LPS challenge measured after 24 hr by Griess assay relative to vehicle-treated control; format: cell-based
T1 sequence (whole entry): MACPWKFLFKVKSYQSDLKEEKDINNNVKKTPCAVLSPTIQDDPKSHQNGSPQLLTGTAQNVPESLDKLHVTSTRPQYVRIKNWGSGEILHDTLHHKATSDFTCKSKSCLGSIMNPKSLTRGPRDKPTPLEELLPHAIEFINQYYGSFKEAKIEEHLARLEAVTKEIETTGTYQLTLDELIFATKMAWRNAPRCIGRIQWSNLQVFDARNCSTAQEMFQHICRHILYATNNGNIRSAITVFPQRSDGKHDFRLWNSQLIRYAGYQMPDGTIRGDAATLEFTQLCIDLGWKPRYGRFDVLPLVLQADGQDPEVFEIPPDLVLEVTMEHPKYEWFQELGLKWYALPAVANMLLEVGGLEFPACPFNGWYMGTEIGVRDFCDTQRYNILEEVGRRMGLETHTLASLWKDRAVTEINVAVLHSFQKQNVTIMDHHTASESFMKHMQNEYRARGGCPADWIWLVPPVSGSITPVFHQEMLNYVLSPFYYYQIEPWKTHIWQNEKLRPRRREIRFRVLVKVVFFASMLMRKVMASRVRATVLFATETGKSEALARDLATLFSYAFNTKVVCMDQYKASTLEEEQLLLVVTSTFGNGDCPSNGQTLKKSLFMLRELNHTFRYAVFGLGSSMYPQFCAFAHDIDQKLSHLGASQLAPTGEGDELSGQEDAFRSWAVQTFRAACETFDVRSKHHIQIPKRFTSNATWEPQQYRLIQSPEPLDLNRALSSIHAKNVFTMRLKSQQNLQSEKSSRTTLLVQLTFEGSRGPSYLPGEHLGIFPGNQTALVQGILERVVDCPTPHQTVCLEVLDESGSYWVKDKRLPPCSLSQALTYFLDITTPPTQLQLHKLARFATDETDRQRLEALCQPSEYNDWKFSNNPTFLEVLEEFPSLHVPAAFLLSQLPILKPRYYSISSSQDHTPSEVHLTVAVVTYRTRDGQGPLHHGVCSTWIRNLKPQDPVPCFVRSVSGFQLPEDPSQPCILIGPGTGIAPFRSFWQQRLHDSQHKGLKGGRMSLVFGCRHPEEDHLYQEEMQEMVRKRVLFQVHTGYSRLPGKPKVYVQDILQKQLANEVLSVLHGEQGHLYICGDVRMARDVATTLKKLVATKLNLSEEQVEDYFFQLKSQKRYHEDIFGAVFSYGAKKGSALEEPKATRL

Pichia kudriavzevii = experiment: Antifungal activity against Pichia kudriavzevii NRRL Y-7179 after 24 hr by NCCLS broth microdilution method; format: functional; conditions: NRRL Y-7179, 24 h
SK-OV-3 = experiment: Cytotoxicity against Homo sapiens (human) SKOV3 cells assessed as cell viability up to 25 ug/ml after 48 hr by neutral red assay; format: functional, cell-based
Candida albicans [8] = experiment: Antifungal activity against Candida albicans clinical isolate at 2000 ug/ml by agar diffusion method; format: functional; conditions: read-out: IZ
[9] = Cytotoxicity against Sus scrofa (pig) LLC-PK11 cells assessed as cell viability up to 25 ug/ml after 48 hr by neutral red assay; format: cell-based; conditions: llc-pk11, 48 h
SW1353 = experiment: Inhibition of PMA-induced NFkappaB activity in Homo sapiens (human) SW1353 cells up to 25 ug/ml incubated for 30 min followed by PMA induction for 8 hr by luciferase reporter gene assay; format: cell-based
Candida albicans [10] = experiment: Antifungal activity against Candida albicans clinical isolate after 24 hr by NCCLS broth microdilution method; format: functional
HL-60 [11] = experiment: Cytotoxicity against Homo sapiens (human) HL60 cells up to 25 ug/ml; format: cell-based
[12] = target: T2, Nitric oxide synthase, inducible (Mus musculus, UniProt P29477); experiment: Inhibition of iNOS in Mus musculus (mouse) RAW264.7 cells assessed as inhibition of LPS-induced nitrite production incubated for 30 min prior to LPS challenge measured after 24 hr by Griess assay; format: cell-based
T2 sequence (P29477 whole entry): T1 sequence (whole entry)

Sequence of Transcription factor Sp1 (P08047 whole entry): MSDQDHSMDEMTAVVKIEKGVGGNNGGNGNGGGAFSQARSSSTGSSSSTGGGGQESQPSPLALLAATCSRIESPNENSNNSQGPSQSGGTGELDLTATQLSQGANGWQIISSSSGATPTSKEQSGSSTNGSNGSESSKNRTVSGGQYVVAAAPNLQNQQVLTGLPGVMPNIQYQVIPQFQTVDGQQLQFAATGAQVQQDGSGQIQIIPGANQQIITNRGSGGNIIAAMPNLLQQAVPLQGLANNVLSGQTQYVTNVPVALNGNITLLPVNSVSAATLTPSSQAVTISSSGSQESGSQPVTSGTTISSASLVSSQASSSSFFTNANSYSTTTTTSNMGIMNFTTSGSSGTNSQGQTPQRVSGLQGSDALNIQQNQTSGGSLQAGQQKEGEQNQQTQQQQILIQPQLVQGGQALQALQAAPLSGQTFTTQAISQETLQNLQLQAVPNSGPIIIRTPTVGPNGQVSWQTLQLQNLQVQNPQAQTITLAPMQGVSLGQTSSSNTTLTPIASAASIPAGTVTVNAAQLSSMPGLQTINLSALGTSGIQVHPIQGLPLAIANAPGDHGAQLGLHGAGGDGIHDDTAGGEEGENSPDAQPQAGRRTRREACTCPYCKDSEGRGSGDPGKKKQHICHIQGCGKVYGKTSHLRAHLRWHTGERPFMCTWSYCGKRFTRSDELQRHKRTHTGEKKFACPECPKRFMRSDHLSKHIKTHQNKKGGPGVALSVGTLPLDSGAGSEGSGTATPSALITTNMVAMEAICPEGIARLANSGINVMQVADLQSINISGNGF

| inhibition (INH) (Transcription factor Sp1) | MIC (Candida albicans [1]) [µg/mL] | MIC (Candida albicans [2]) [µg/mL] | MIC (Cyberlindnera jadinii) [µg/mL] | MIC (Candida parapsilosis) [µg/mL] | MIC (Candida tropicalis [4]) [µg/mL] | IC50 (HL-60 [6]) [µg/mL] | MIC (Nakaseomyces glabratus) [µg/mL] | MIC (Pichia kudriavzevii) [µg/mL] | Compound | Activity (SK-MEL) | Activity (RAW264.7) | Activity (KB) | Activity (Vero) | Activity (BT-549) | IC50 (HL-60 [3]) [µg/mL] | zone of inhibition at 2000 µg/mL (Candida tropicalis [5]) [mm] | Activity (SK-OV-3) | zone of inhibition at 2000 µg/mL (Candida albicans [8]) [mm] | Activity [9] | inhibition (SW1353) | further results |
| --- | --- | --- | --- | --- | --- | --- | --- | --- | --- | --- | --- | --- | --- | --- | --- | --- | --- | --- | --- | --- | --- |
| Not Active | 500 (≈ 1750 µM) | 500 (≈ 1750 µM) | 500 (≈ 1750 µM) | 500 (≈ 1750 µM) | 500 (≈ 1750 µM) | 23 (≈ 80.6 µM) | 125 (≈ 438 µM) | 500 (≈ 1750 µM) | CN(C)c1ccc(/C=N/NC(=O)c2ccc(F)cc2)cc1 | inactive | Non-toxic | inactive | Not Active | inactive | > 31.2 | 9 | inactive | 9 | Not Active | inactive | inhibition [7]: inactive |
| Not Active | 500 (≈ 1820 µM) | 1000 (≈ 3650 µM) | 500 (≈ 1820 µM) | 1000 (≈ 3650 µM) | 500 (≈ 1820 µM) | 5.2 (≈ 19 µM) | 500 (≈ 1820 µM) | 500 (≈ 1820 µM) | CC(=O)N1N=C(c2ccc(F)cc2)OC1c1ccco1 (configuration not stated) | inactive | Non-toxic | inactive | Not Active | inactive | 24 (≈ 87.5 µM) | 9 | inactive | 9 | Not Active | inactive | inhibition [7]: inactive; MIC (Candida albicans [10]): 500 µg/mL (≈ 1820 µM) |
| Not Active | 500 (≈ 1730 µM) | 500 (≈ 1730 µM) | 500 (≈ 1730 µM) | 500 (≈ 1730 µM) | 250 (≈ 867 µM) | 0.9 (≈ 3.12 µM) | 250 (≈ 867 µM) | 500 (≈ 1730 µM) | COc1ccc(/C=N/NC(=O)c2ccc(F)cc2)cc1O | inactive | Non-toxic | inactive | Not Active | inactive | – | 9 | inactive | 9 | Not Active | inactive | Activity (HL-60 [11]): Non-toxic; IC50 [12]: 76.3 µM |
| Not Active | 500 (≈ 1840 µM) | 500 (≈ 1840 µM) | 500 (≈ 1840 µM) | 500 (≈ 1840 µM) | 1000 (≈ 3670 µM) | 2.5 (≈ 9.18 µM) | 250 (≈ 918 µM) | 500 (≈ 1840 µM) | COc1ccc(/C=N/NC(=O)c2ccc(F)cc2)cc1 | inactive | Non-toxic | inactive | Not Active | inactive | 20 (≈ 73.5 µM) | 9 | inactive | 9 | Not Active | inactive | inhibition [7]: inactive |
| Not Active | 500 (≈ 2150 µM) | 500 (≈ 2150 µM) | 500 (≈ 2150 µM) | 500 (≈ 2150 µM) | 500 (≈ 2150 µM) | 0.7 (≈ 3.01 µM) | 250 (≈ 1080 µM) | 500 (≈ 2150 µM) | O=C(N/N=C/c1ccco1)c1ccc(F)cc1 | inactive | Non-toxic | inactive | Not Active | inactive | 27 (≈ 116 µM) | 9 | inactive | 9 | Not Active | inactive | MIC (Candida albicans [10]): 250 µg/mL (≈ 1080 µM); IC50 [12]: > 108 µM |
